Laboratory results reported in patent US20090325944A1, “Methods and Compositions for Modulating Glycosylation” (priority 2006, published 2009).

Molecular target: T1, sOGT (Homo sapiens, UniProt O15294)
T1 construct: ncOGT and sOGT are identical to known splice variants; His8 (C); made in house; host or cells: E. coli BL21(DE3)
T1 sequence (O15294 1-665 isoform O15294-4): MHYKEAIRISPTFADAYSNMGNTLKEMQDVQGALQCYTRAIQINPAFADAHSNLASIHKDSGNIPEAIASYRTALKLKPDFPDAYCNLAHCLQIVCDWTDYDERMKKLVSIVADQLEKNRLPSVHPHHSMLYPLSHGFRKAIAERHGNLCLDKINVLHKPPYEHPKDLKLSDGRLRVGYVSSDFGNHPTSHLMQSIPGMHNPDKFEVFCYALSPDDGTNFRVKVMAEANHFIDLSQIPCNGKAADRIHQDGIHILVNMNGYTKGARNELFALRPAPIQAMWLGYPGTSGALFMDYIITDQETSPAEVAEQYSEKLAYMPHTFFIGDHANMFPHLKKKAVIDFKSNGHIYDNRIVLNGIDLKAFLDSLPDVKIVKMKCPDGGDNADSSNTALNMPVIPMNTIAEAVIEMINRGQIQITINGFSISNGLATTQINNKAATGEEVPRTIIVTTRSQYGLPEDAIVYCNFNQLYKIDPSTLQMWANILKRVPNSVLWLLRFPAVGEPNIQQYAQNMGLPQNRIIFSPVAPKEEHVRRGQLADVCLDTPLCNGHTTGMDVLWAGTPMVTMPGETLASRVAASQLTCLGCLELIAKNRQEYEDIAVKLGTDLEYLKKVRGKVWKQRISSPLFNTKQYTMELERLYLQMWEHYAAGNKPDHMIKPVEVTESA
Assay: Fluorescence polarization displacement of probe 3 from sOGT (validation with UDP and UDP-GlcNAc)
Format: binding
Method: 20 μL of this solution is transferred to wells of a 384-well microplate. […] Fluorescence polarization was measured using a Perkin Elmer Envision® microplate reader. Bach series was performed in triplicate and the average of each data point was converted from mP to anisotropy then fitted to the following equation:
[L]0=(KD(Amax−A)/Kd(A−Amin)+1)([E]0−Kd(A−Amin)/(Amax−A)−[t]0(A−Amin)/(Amax−Amin)) eq 3
where A=measured anisotropy at a particular total concentration of ligand (L), sOGT (E) and probe 3 (t), Amin=minimum polarization (i.e., anisotropy of free probe), Amax=final anisotropy (i.e., anisotropy of probe 3 bound entirely to sOGT), KD=dissociation constant of the ligand, Kd=dissociation constant of the probe 3.

In the case of `O=c1ccn([C@@H]2O[C@H](COP(=O)(O)OP(=O)(O)O)[C@@H](O)[C@H]2O)c(=O)[nH]1` [UDP], the Kd (50 nM probe 3, […] sOGT, ligand 50 μM to 98 nM, read-out: KD (dissociation constant) from displacement of probe 3 from sOGT) is reported as 0.8 ± 0.3 µM and the “extent of displacement of probe 3 from sOGT” value (at high concentrations of ligand) is reported as “completely displaced probe 3 from sOGT”.
